Assay results as given in article PMC12758957 (Thrombosis and Haemostasis, 2025).

Tests used:
FXa = tested on: FXa; design: method as in PMID 28904343, PMID 38729577; settings: S4 subsite modified FXa variants; cited from earlier work
[1] = target: prothrombinase-activated prothrombin-KL3; format: biochemical, human
Method: (§1) Prothrombin variants were activated to thrombin by prothrombinase immediately prior to analyses. Reaction mixtures of prothrombin variant (1 μM) and preassembled prothrombinase (2 nM FXa, 2 nM FV-810, and 50 μM phospholipid TGT, final concentrations) were incubated for 30 minutes at 25°C in assay buffer, upon which the reaction was quenched in dilution buffer supplemented with 50 mM EDTA.

thrombin = settings: read-out: reported IC50, peak thrombin formation; cited from earlier work
[2] = target: T1, prothrombinase-activated wild-type prothrombin (Homo sapiens, UniProt P00734); settings: 1 μM dabigatran
Method: Fibrinogen conversion was determined employing a turbidity assay. […] Turbidity was measured for 1 hour at 25°C and 350 nm.

wild-type thrombin = settings: read-out: reported K i, substrate conversion; cited from earlier work
[3] = target: T1, prothrombinase-activated wild-type prothrombin; assay: Inhibition of pNAPEP-0238 peptidyl substrate conversion in a purified system; format: biochemical; settings: wild-type thrombin, observed vs reported (ref 41)
Method: as §1

Question: For `O=C(NC[C@H]1CN(c2ccc(N3CCOCC3=O)cc2)C(=O)O1)c1ccc(Cl)s1` [rivaroxaban], which “hindered FXa active site engagement by inhibitor” value (FXa) is on record?
Answer: Its value is ≤ 800 fold.

Question: Which IC50 ([1]; 5 nM prothrombinase-activated KL3, 50 μM pNAPEP-0238, read-out: IC50, pNAPEP-0238 conversion) does the source give for `[H]/N=C(/N)c1ccc(NCc2nc3cc(C(=O)N(CCC(=O)O)c4ccccn4)ccc3n2C)cc1` [Dabigatran] here?
Answer: Its IC50 is 237 ± 33 nM.

Question: And the Ki ([1]; KL3, Cheng-Prusoff equation)?
Answer: The Ki was 150 nM.

Question: What about the “fibrinogen conversion by activated wild-type prothrombin (in words)” value [2] of the same compound?
Answer: Its value is “no detectable fibrinogen conversion”.

Question: And the Ki (wild-type thrombin)?
Answer: Its Ki is 5 nM.

Question: For `COc1ccc(-n2nc(C(N)=O)c3c2C(=O)N(c2ccc(N4CCCCC4=O)cc2)CC3)cc1` [apixaban], which “hindered FXa active site engagement by inhibitor” value (FXa) is on record?
Answer: The value was ≤ 800 fold.

Question: For `CC1CNc2c(cccc2S(=O)(=O)N[C@@H](CCCNC(=N)N)C(=O)N2CC[C@@H](C)C[C@@H]2C(=O)O)C1` (some centres unmarked) [Argatroban], which “lower K i value observed versus reported” value [3] is on record?
Answer: The value was 13 fold.
